According to patent US8993258B2, “Fluorinated voltage sensitive dyes, preparation thereof, and optical methods of use” (The University of Connecticut, priority 2012, dated 2015):

Legend:
[1] = Photobleaching rate under white light from a xenon lamp; assay type: physicochemical; details: single exponential decay fit of absorbance
How it was run: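 Photostability was scored as a photobleaching rate, expressed relative to the unsubstituted parent dye. Dyes were irradiated with white light from a xenon lamp while absorbance was monitored. The rate was derived by fitting a single exponential decay to the absorbance over time.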

[2] = Fluorescence emission spectra and fluorescence quantum yield (FQY) of dyes; assay type: physicochemical
From the text: (§1) Similar methods were used to prepare additional dyes.

[3] = Voltage sensitivity: fluorescence change for a 100 millivolt step in membrane potential
[4] = One-photon absorption spectra of dyes (λmax abs, logε); assay type: physicochemical
From the text: as §1

Row | Photobleaching rate (Relative to unsubstituted dye) [1] | FQY ([2]; Ethanol) | λmax em ([2]; Ethanol) [nm] | FQY ([2]; Lipid vesicles) | λmax em ([2]; Lipid vesicles) [nm] | FQY ([2]; PBS buffer) | logε ([4]; Ethanol) | λmax abs ([4]; Ethanol) [nm] | logε ([4]; Lipid vesicles) | λmax abs ([4]; Lipid vesicles) [nm] | logε ([4]; PBS buffer) | λmax abs ([4]; PBS buffer) [nm] | SMILES | other results
1 | 0.63 | 0.001 | 720 | 0.16 | 636 | — (FQY < 0.001) | 4.5 | 539 | 4.4 | 488 | 4.2 | 493 | CCCCN(CCCC)c1ccc2cc(/C=C(\F)c3cc[n+](CCC[N+](CC)(CC)CC)cc3)ccc2c1 [PY3006] | Voltage sensitivity ΔF/F per 100 mV ([3]; Ex/Em 578/>695 nm): 12% 578/ >695
2 | 0.63 | 0.002 | 720 | 0.26 | 632 | — (FQY < 0.001) | 4.4 | 545 | 4.3 | 495 | 4.2 | 506 | CCCCN(CCCC)c1ccc2cc(/C=C/c3cc[n+](CCC[N+](CC)(CC)CC)cc3F)ccc2c1 [PY3128] | Voltage sensitivity ΔF/F per 100 mV ([3]; Ex/Em 590/>695 nm): 6% 590/ >695
3 | 0.83 | 0.007 | 704 | 0.25 | 610 | 0.002 | 4.4 | 481 | 4.3 | 444 | 4.2 | 401 | CCCCN(CCCC)c1ccc2cc(/C=C/c3cc[n+](CCC[N+](CC)(CC)CC)cc3)ccc2c1F [PY3174] | λmax em ([2]; PBS buffer): 666 nm; Voltage sensitivity ΔF/F per 100 mV ([3]; Ex/Em 545/>695 nm): 6% 545/ >695
4 | 0.91 | 0.003 | 720 | 0.22 | 632 | — (FQY < 0.001) | 4.3 | 509 | 4.3 | 465 | 4.1 | 414 | CCCCN(CCCC)c1ccc2cc(/C=C/c3cc[n+](CCC[N+](CC)(CC)CC)cc3F)ccc2c1F [PY3179] | Voltage sensitivity ΔF/F per 100 mV ([3]; Ex/Em 572/>695 nm): 18% 572/ >695
5 | 1.56 | 0.004 | 658 | 0.18 | 646 | — (FQY < 0.001) | 4.6 | 569 | 4.3 | 511 | 4.2 | 530 | CCCCN(CCCC)c1ccc2cc(/C=C/c3c(F)c[n+](CCC[N+](CC)(CC)CC)cc3F)ccc2c1 [PY3184] | Voltage sensitivity ΔF/F per 100 mV ([3]; Ex/Em 610/>695 nm): 11% 610/ >695
6 | 5.26 | 0.001 | 825 | 0.03 | 686 | — (FQY < 0.001) | 4.4 | 617 | 4.2 | 547 | 4.0 | 565 | CCCCN(CCCC)c1ccc2cc(/C=C/c3c(F)c[n+](CCC[N+](CC)(CC)CC)c4ccccc34)ccc2c1 [PY3304] | Voltage sensitivity ΔF/F per 100 mV ([3]; Ex/Em 645/>745 nm): 12% 645/ >745
7 | 0.62 | 0.001 | 760 | 0.26 | 643 | — (FQY < 0.001) | 4.4 | 497 | 4.3 | 464 | 4.0 | 409 | CCCCN(CCCC)c1ccc2cc(/C=C(\F)c3cc[n+](CCC[N+](CC)(CC)CC)cc3)ccc2c1F [PY4038] | Voltage sensitivity ΔF/F per 100 mV ([3]; Ex/Em 578/>695 nm): 7% 578/ >695
8 | 0.95 | 0.046 | 687 | 0.35 | 597 | 0.005 | 4.6 | 449 | 4.5 | 418 | 4.3 | 430 | CCCCN(CCCC)c1ccc2cc(/C=C/c3cc[n+](CCC[N+](CC)(CC)CC)cc3)ccc2c1C(F)(F)F [PY4093] | λmax em ([2]; PBS buffer): 715 nm; Voltage sensitivity ΔF/F per 100 mV ([3]; Ex/Em 530/>645 nm): 8% 530/ >645
9 | 1.35 | 0.006 | 694 | 0.30 | 590 | 0.004 | 4.4 | 453 | 4.4 | 422 | 4.2 | 395 | CCCCN(CCCC)c1ccc2cc(/C=C(\F)c3cc[n+](CCC[N+](CC)(CC)CC)cc3)ccc2c1C(F)(F)F [PY4125] | λmax em ([2]; PBS buffer): 624 nm; Voltage sensitivity ΔF/F per 100 mV ([3]; Ex/Em 510/>695 nm): 5% 510/ >695
10 | 0.89 | 0.003 | 845 | 0.23 | 651 | — (FQY < 0.001) | 4.3 | 510 | 4.2 | 470 | 4.0 | 408 | CCCCN(CCCC)c1ccc2cc(/C=C(\F)c3cc[n+](CCC[N+](CC)(CC)CC)cc3F)ccc2c1F [PY4158] | Voltage sensitivity ΔF/F per 100 mV ([3]; Ex/Em 580/>695 nm): 7% 580/ >695
11 | 0.66 | 0.003 | 710 | 0.21 | 660 | — (FQY < 0.001) | 4.6 | 558 | 4.5 | 500 | 4.4 | 513 | CCCCN(CCCC)c1ccc2cc(/C=C(\F)c3cc[n+](CCC[N+](CC)(CC)CC)cc3F)ccc2c1 [PY4160] | Voltage sensitivity ΔF/F per 100 mV ([3]; Ex/Em 602/>695 nm): 10% 602/ >695
12 | – | — (FQY < 0.001) | – | 0.07 | 743 | — (FQY < 0.001) | 4.4 | 627 | 4.2 | 553 | 4.1 | 537 | CCCCN(CCCC)c1ccc2cc(/C=C/c3c(F)c[n+](CCC[N+](CC)(CC)CC)c4ccccc34)ccc2c1 [PY4221] | Voltage sensitivity ΔF/F per 100 mV ([3]; Ex/Em 670/>780 nm): 6% 670/ >780
